Several values for one entry are separate records, joined by “and”; a condition that tells them apart may be missing. Equal values may be shown once. Read-outs that look alike come from different tables or passages of the source.
Tests used:
[1] = Pharmacokinetics after single oral administration to rats; assay type: in vivo, rat; settings: for AUC(0-inf) / Cmax / Tmax / AUC(0-t) / half-life: po; for half-life: read-out: Terminal t1/2, Mean (converted); for AUC: read-out: AUC48
Protocol: Experiments were performed at ChemPartner, Shanghai, China and approved by Institutional Ethics Committee (IEC) of ChemPartner. Male Wistar 10–12 weeks old rats with body weights of 185–220 g and male New Zealand rabbits with body weights of 2.0–2.3 kg were purchased from Shanghai SLAC Laboratory Animal Co., Ltd. MT-SYK-03 was administered to the three groups of rats (six rats per group) via oral gavage at 10 mL/kg concentration, and in rabbits 5 mL/kg concentration. Blood samples were kept on ice and centrifuged (2000 g, 4 ℃, 5 min) within 15 min post sampling.

[2] = target: SYK (Homo sapiens, UniProt P43405); experiment: Kinase selectivity profile assay; assay type: biochemical; design: purchased Reaction Biology Corporation; settings: 500 nM; relative to DMSO; read-out: Residual enzymatic activity
Description: Kinase activity data was expressed as the percent remaining kinase activity in test samples compared to vehicle (dimethyl sulfoxide) reactions based on the radioactivity of reaction products (see Table S2). Experiment was replicated twice.

[3] = male, Wistar, rat, plasma, rats, single oral 30 mg/kg
[4] = male, Wistar, rat, plasma, rats, single oral 100 mg/kg
[5] = male, Wistar, rat, plasma, rats, single oral 200 mg/kg

In the case of `COc1cc(Nc2ncnc(Nc3cc4c(cn3)NC(=O)C(C)(C)O4)n2)cc(OC)c1OC` [MT-SYK-03], the concentration at 2 h ([1]; male, Wistar, rat, plasma, oral, 200 mg/kg, Table S8, 200 mg/kg PO, male Wistar rats, individual Rat#13-18, read-out: Plasma concentration) is reported as 1180 ng/mL, the concentration at 2 h ([1]; male, Wistar, rat, plasma, oral, 200 mg/kg, Table S8, 200 mg/kg PO, male Wistar rats, mean of Rat#13-18, read-out: Plasma concentration, Mean) is reported as 1040 ng/mL and the concentration at 4 h ([1]; male, Wistar, rat, plasma, oral, 200 mg/kg, Table S8, 200 mg/kg PO, male Wistar rats, 4 h, mean of Rat#13-18) is reported as 725 ng/mL. For the same compound, the concentration at 8 h ([1]; male, Wistar, rat, plasma, oral, 200 mg/kg, Table S8, 200 mg/kg PO, male Wistar rats, 8 h, mean of Rat#13-18) was 206 ng/mL, the concentration at 24 h ([1]; male, Wistar, rat, plasma, oral, 200 mg/kg, Table S8, 200 mg/kg PO, male Wistar rats, 24 h, mean of Rat#13-18) was 4.99 ng/mL and the concentration at 48 h ([1]; male, Wistar, rat, plasma, oral, 200 mg/kg, Table S8, 200 mg/kg PO, male Wistar rats, 48 h, mean of Rat#13-18, read-out: Plasma concentration, Mean) was 5.44 ng/mL. It also gave an AUC(0-inf) ([1]; male, Wistar, rat, plasma, 30 mg/kg, rats, single oral 30 mg/kg, read-out: AUCinf) of 2420 ± 945 ng·h/mL, a Cmax ([1]; male, Wistar, rat, plasma, 30 mg/kg, rats, single oral 30 mg/kg, read-out: Cmax) of 416 ± 114 ng/mL and a Tmax ([1]; male, Wistar, rat, plasma, 30 mg/kg, rats, single oral 30 mg/kg, read-out: Tmax) of 1.5 ± 0.548 h. The Tmax ([1]; male, Wistar, rat, plasma, 100 mg/kg, Table S6, 100 mg/kg PO, male Wistar rats, plasma, individual Rat#1-6, read-out: Tmax) was 2 h, the AUC(0-inf) ([1]; male, Wistar, rat, plasma, 100 mg/kg, Table S6, 100 mg/kg PO, male Wistar rats, plasma, mean of Rat#1-6, read-out: AUCINF, Mean) was 2420 ng·h/mL and the AUC(0-t) ([1]; male, Wistar, rat, plasma, 100 mg/kg, Table S6, 100 mg/kg PO, male Wistar rats, plasma, mean of Rat#1-6, read-out: AUClast, Mean) was 2340 ng·h/mL. The Cmax ([1]; male, Wistar, rat, plasma, 100 mg/kg, Table S6, 100 mg/kg PO, male Wistar rats, plasma, mean of Rat#1-6, read-out: Cmax, Mean) was 416 ng/mL, the half-life ([1]; male, Wistar, rat, plasma, 100 mg/kg, Table S6, 100 mg/kg PO, male Wistar rats, plasma, mean of Rat#1-6) was 5.53 h and the Tmax ([1]; male, Wistar, rat, plasma, 100 mg/kg, Table S6, 100 mg/kg PO, male Wistar rats, plasma, mean of Rat#1-6, read-out: Tmax, Mean) was 1.5 h. It also gave an AUC(0-inf) ([1]; male, Wistar, rat, plasma, 100 mg/kg, Table S7, 100 mg/kg PO, male Wistar rats, plasma, individual Rat#7-12, read-out: AUCINF) of 4250 ng·h/mL, an AUC(0-t) ([1]; male, Wistar, rat, plasma, 100 mg/kg, Table S7, 100 mg/kg PO, male Wistar rats, plasma, individual Rat#7-12, read-out: AUClast) of 4240 ng·h/mL and a Cmax ([1]; male, Wistar, rat, plasma, 100 mg/kg, Table S7, 100 mg/kg PO, male Wistar rats, plasma, individual Rat#7-12, read-out: Cmax) of 822 ng/mL. The Tmax ([1]; male, Wistar, rat, plasma, 100 mg/kg, Table S7, 100 mg/kg PO, male Wistar rats, plasma, individual Rat#7-12, read-out: Tmax) was 1 h, the AUC(0-inf) ([1]; male, Wistar, rat, plasma, 100 mg/kg, Table S7, 100 mg/kg PO, male Wistar rats, plasma, mean of Rat#7-12, read-out: AUCINF, Mean) was 4270 ng·h/mL and the AUC(0-t) ([1]; male, Wistar, rat, plasma, 100 mg/kg, Table S7, 100 mg/kg PO, male Wistar rats, plasma, mean of Rat#7-12, read-out: AUClast, Mean) was 4260 ng·h/mL. The Cmax ([1]; male, Wistar, rat, plasma, 100 mg/kg, Table S7, 100 mg/kg PO, male Wistar rats, plasma, mean of Rat#7-12, read-out: Cmax, Mean) was 864 ng/mL, the half-life ([1]; male, Wistar, rat, plasma, 100 mg/kg, Table S7, 100 mg/kg PO, male Wistar rats, plasma, mean of Rat#7-12) was 4.06 h and the Tmax ([1]; male, Wistar, rat, plasma, 100 mg/kg, Table S7, 100 mg/kg PO, male Wistar rats, plasma, mean of Rat#7-12, read-out: Tmax, Mean) was 1 h. For the same compound, the AUC(0-inf) ([1]; male, Wistar, rat, plasma, 100 mg/kg, rats, single oral 100 mg/kg, read-out: AUCinf) was 4270 ± 608 ng·h/mL, the Cmax ([1]; male, Wistar, rat, plasma, 100 mg/kg, rats, single oral 100 mg/kg, read-out: Cmax) was 864 ng/mL and 1.42 µM and the Tmax ([1]; male, Wistar, rat, plasma, 100 mg/kg, rats, single oral 100 mg/kg, read-out: Tmax) was 1 h. For the same compound, the AUC(0-inf) ([1]; male, Wistar, rat, plasma, 200 mg/kg, Table S8, 200 mg/kg PO, male Wistar rats, plasma, individual Rat#13-18, read-out: AUCINF) was 7500 ng·h/mL, the AUC(0-t) ([1]; male, Wistar, rat, plasma, 200 mg/kg, Table S8, 200 mg/kg PO, male Wistar rats, plasma, individual Rat#13-18, read-out: AUClast) was 7480 ng·h/mL and the Cmax ([1]; male, Wistar, rat, plasma, 200 mg/kg, Table S8, 200 mg/kg PO, male Wistar rats, plasma, individual Rat#13-18, read-out: Cmax) was 1180 ng/mL. The Tmax ([1]; male, Wistar, rat, plasma, 200 mg/kg, Table S8, 200 mg/kg PO, male Wistar rats, plasma, individual Rat#13-18, read-out: Tmax) was 2 h, the AUC(0-inf) ([1]; male, Wistar, rat, plasma, 200 mg/kg, Table S8, 200 mg/kg PO, male Wistar rats, plasma, mean of Rat#13-18, read-out: AUCINF, Mean) was 7320 ng·h/mL and the AUC(0-t) ([1]; male, Wistar, rat, plasma, 200 mg/kg, Table S8, 200 mg/kg PO, male Wistar rats, plasma, mean of Rat#13-18, read-out: AUClast, Mean) was 7270 ng·h/mL. For the same compound, the Cmax ([1]; male, Wistar, rat, plasma, 200 mg/kg, Table S8, 200 mg/kg PO, male Wistar rats, plasma, mean of Rat#13-18, read-out: Cmax, Mean) was 1280 ng/mL, the half-life ([1]; male, Wistar, rat, plasma, 200 mg/kg, Table S8, 200 mg/kg PO, male Wistar rats, plasma, mean of Rat#13-18) was 5.08 h and the Tmax ([1]; male, Wistar, rat, plasma, 200 mg/kg, Table S8, 200 mg/kg PO, male Wistar rats, plasma, mean of Rat#13-18, read-out: Tmax, Mean) was 1.33 h. The AUC(0-inf) ([1]; male, Wistar, rat, plasma, 200 mg/kg, rats, single oral 200 mg/kg, read-out: AUCinf) was 7320 ± 1460 ng·h/mL, the Cmax ([1]; male, Wistar, rat, plasma, 200 mg/kg, rats, single oral 200 mg/kg, read-out: Cmax) was 1280 ng/mL and 2.1 µM and the Tmax ([1]; male, Wistar, rat, plasma, 200 mg/kg, rats, single oral 200 mg/kg, read-out: Tmax) was 1.33 ± 0.516 h. It also gave a k el [1, 3] of 4.44e-05 s⁻¹, an AUC [1, 3] of 2340 ± 979 ng·h/mL and a k el [1, 4] of 5.28e-05 s⁻¹. The AUC [1, 4] was 4260 ± 621 ng·h/mL, the k el [1, 5] was 4.72e-05 s⁻¹ and the AUC [1, 5] was 7270 ± 1490 ng·h/mL. For the same compound, the “Average plasma concentration after administration in rats” value ([1]; rats, PO) was 200 to 700 nM, the MRT24 ([1]; rats, single oral 30 mg/kg) was 4.26 ± 0.57 h and the τ1/2 ([1]; rats, single oral 30 mg/kg) was 5.53 ± 2.38 h. It also gave an MRT24 ([1]; rats, single oral 100 mg/kg) of 4.12 ± 0.56 h, a τ1/2 ([1]; rats, single oral 100 mg/kg) of 4.06 ± 1.49 h and an MRT24 ([1]; rats, single oral 200 mg/kg) of 4.89 ± 1.63 h. The τ1/2 ([1]; rats, single oral 200 mg/kg) was 5.08 ± 2.39 h and the remaining activity at 0.5 µM [2] was 57.4%.

From publication PMC8632988, “Inhibition of SYK and cSrc kinases can protect bone and cartilage in preclinical models of osteoarthritis and rheumatoid arthritis” (Scientific Reports, 2021)
